Measured values from patent US10336761B2, “TGFβ receptor antagonist” (BRISTOL-MYERS SQUIBB COMPANY, priority 2015, dated 2019).
pIC50: −log10 of the molar value.

What follows are molecules tested against HIS-TGFβR1 T204D (Homo sapiens (Human), UniProt P36897, T204D) (assay: HTRF probe-displacement assay, HIS-TGFβR1 T204D). Details: 1 hour at room temperature.
Type: binding

Chain of HIS-TGFβR1 T204D (P36897 34-503 T204D): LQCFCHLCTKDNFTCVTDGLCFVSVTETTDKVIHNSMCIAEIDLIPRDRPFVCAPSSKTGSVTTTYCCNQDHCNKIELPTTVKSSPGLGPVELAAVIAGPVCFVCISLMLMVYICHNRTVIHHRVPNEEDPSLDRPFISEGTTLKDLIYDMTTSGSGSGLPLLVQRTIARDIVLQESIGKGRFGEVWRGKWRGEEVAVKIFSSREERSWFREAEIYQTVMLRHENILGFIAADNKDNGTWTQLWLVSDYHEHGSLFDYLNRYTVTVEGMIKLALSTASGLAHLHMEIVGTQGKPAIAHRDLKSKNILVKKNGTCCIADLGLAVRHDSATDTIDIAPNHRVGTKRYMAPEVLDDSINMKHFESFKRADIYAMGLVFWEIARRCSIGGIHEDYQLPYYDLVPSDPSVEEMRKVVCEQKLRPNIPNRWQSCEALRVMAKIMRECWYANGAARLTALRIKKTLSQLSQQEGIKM

Structure (SMILES) | pIC50
O=C(NC1CCOCC1)c1cnccc1Nc1nc(-c2cccc(C(F)F)n2)nn2cccc12 [Example 178, 4-({2-[6-(difluoromethyl)pyridin-2-yl]pyrrolo[2,1-f][1,2,4]triazin-4-yl}amino)-N-(oxan-4-yl)pyridine-3-carboxamide] | 6.66
COC(=O)Nc1cc2c(Nc3ccncc3F)nc(-c3cccc(OC)n3)nn2c1 [Example 73, Methyl N-{4-[(3-fluoropyridin-4-yl)amino]-2-(6-methoxypyridin-2-yl)pyrrolo[2,1-f][1,2,4]triazin-6-yl}carbamate] | 7.13
Fc1cnccc1Nc1nc(-c2nc(C(F)(F)F)cs2)nn2cccc12 [Example 17, N-(3-fluoropyridin-4-yl)-2-(4-(trifluoromethyl)thiazol-2-yl)pyrrolo[2,1-f][1,2,4]triazin-4-amine] | 9.14
CSc1nccc(-c2nc(Nc3ccncc3)c3cccn3n2)n1 [Example 215, N-{2-[2-(methylsulfanyl)pyrimidin-4-yl]pyrrolo[2,1-f][1,2,4]triazin-4-yl}pyridin-4-amine] | 8.16
O=C(NCc1nccs1)c1cnccc1Nc1nc(-c2cccc(C(F)F)n2)nn2cccc12 [Example 183, 4-({2-[6-(difluoromethyl)pyridin-2-yl]pyrrolo[2,1-f][1,2,4]triazin-4-yl}amino)-N-(1,3-thiazol-2-ylmethyl)pyridine-3-carboxamide] | 7.36
COc1cccc(-c2nc(Nc3ccncc3F)c3cc(CN4CCC(F)(F)CC4)cn3n2)n1 [Example 40, N-{6-[(4,4-difluoropiperidin-1-yl)methyl]-2-(6-methoxypyridin-2-yl)pyrrolo[2,1-f][1,2,4]triazin-4-yl}-3-fluoropyridin-4-amine] | 6.64
CC(=O)Nc1nccc(Nc2nc(-c3cccc(C(F)(F)F)n3)nn3cccc23)c1F [Example 20, N-[3-fluoro-4-({2-[6-(trifluoromethyl)pyridin-2-yl]pyrrolo[2,1-f][1,2,4]triazin-4-yl}amino)pyridin-2-yl]acetamide] | 7.10
CC(C)(O)CNC(=O)c1cc(Nc2nc(-c3cccc(C(F)(F)F)n3)nn3cccc23)ccn1 [Example 324, N-(2-hydroxy-2-methylpropyl)-4-({2-[6-(trifluoromethyl)pyridin-2-yl]pyrrolo[2,1-f][1,2,4]triazin-4-yl}amino)pyridine-2-carboxamide] | 5.36
CS(=O)(=O)Nc1cc(Nc2nc(-c3cccc(C(F)(F)F)n3)nn3cccc23)ccn1 [Example 318, N-[4-({2-[6-(trifluoromethyl)pyridin-2-yl]pyrrolo[2,1-f][1,2,4]triazin-4-yl}amino)pyridin-2-yl]methanesulfonamide] | 5.40
CC(C)(O)CNCC(=O)Nc1cc(Nc2nc(-c3cccc(C(F)(F)F)n3)nn3cccc23)ccn1 [Example 330, 2-[(2-hydroxy-2-methylpropyl)amino]-N-[4-({2-[6-(trifluoromethyl)pyridin-2-yl]pyrrolo[2,1-f][1,2,4]triazin-4-yl}amino)pyridin-2-yl]acetamide] | 9.22
Cc1cccc(-c2nc(Nc3ccncc3OCCCCN(C)C)c3cccn3n2)n1 [Example 51, 3-[4-(dimethylamino)butoxy]-N-[2-(6-methylpyridin-2-yl)pyrrolo[2,1-f][1,2,4]triazin-4-yl]pyridin-4-amine] | 7.52
COCCC(=O)Nc1cc(Nc2nc(-c3cccc(C(F)(F)F)n3)nn3cccc23)ccn1 [Example 343, 3-methoxy-N-[4-({2-[6-(trifluoromethyl)pyridin-2-yl]pyrrolo[2,1-f][1,2,4]triazin-4-yl}amino)pyridin-2-yl]propanamide] | 8.74
FC(F)(F)c1cccc(-c2nc(Nc3ccncc3Cl)c3cccn3n2)n1 [Example 86, 3-chloro-N-{2-[6-(trifluoromethyl)pyridin-2-yl]pyrrolo[2,1-f][1,2,4]triazin-4-yl}pyridin-4-amine] | 8.72
CC(=O)Nc1cc(Nc2nc(-c3cccc(C(F)(F)F)n3)nn3ccc(CNCC(C)(C)O)c23)ccn1 [Example 254, N-{4-[(5-{[(2-hydroxy-2-methylpropyl)amino]methyl}-2-[6-(trifluoromethyl)pyridin-2-yl]pyrrolo[2,1-f][1,2,4]triazin-4-yl)amino]pyridin-2-yl}acetamide] | 8.70
COc1cccc(-c2nc(Nc3ccncc3F)c3cc(NS(=O)(=O)C4CC4)cn3n2)n1 [Example 107, N-{4-[(3-fluoropyridin-4-yl)amino]-2-(6-methoxypyridin-2-yl)pyrrolo[2,1-f][1,2,4]triazin-6-yl}cyclopropanesulfonamide] | 7.09
C[C@@H]1CN(CCNC(=O)c2cnccc2Nc2nc(-c3ccccn3)nn3cccc23)C[C@H](C)O1 [Example 146, N-{2-[cis-2,6-dimethylmorpholin-4-yl]ethyl}-4-{[2-(pyridin-2-yl)pyrrolo[2,1-f][1,2,4]triazin-4-yl]amino}pyridine-3-carboxamide] | 6.77
O=C(CC(F)(F)F)Nc1cc(Nc2nc(-c3cccc(C(F)(F)F)n3)nn3cccc23)ccn1 [Example 344, 3,3,3-trifluoro-N-[4-({2-[6-(trifluoromethyl)pyridin-2-yl]pyrrolo[2,1-f][1,2,4]triazin-4-yl}amino)pyridin-2-yl]propanamide] | 8.29
COc1cccc(-c2nc(Nc3ccncc3F)c3cc(C(C)(C)O)cn3n2)n1 [Example 39, 2-{4-[(3-fluoropyridin-4-yl)amino]-2-(6-methoxypyridin-2-yl)pyrrolo[2,1-f][1,2,4]triazin-6-yl}propan-2-ol] | 5.80
CC(=O)Nc1cc(Nc2nc(-c3cccc(F)n3)nn3cccc23)c(F)cn1 [Example 339, N-(5-fluoro-4-{[2-(6-fluoropyridin-2-yl)pyrrolo[2,1-f][1,2,4]triazin-4-yl]amino}pyridin-2-yl)acetamide] | 8.48
COc1nccc(-c2nc(Nc3ccncc3F)c3cccn3n2)n1 [Example 101, 3-fluoro-N-[2-(2-methoxypyrimidin-4-yl)pyrrolo[2,1-f][1,2,4]triazin-4-yl]pyridin-4-amine] | 6.28

More lines, now with the values ahead:

pIC50 | Structure (SMILES)
6.02 | COc1cccc(-c2nc(Nc3ccncc3F)c3c(C(O)CN4CCN(C)CC4)ccn3n2)n1 (stereo not shown) [Example 128, 1-{4-[(3-fluoropyridin-4-yl)amino]-2-(6-methoxypyridin-2-yl)pyrrolo[2,1-f][1,2,4]triazin-5-yl}-2-(4-methylpiperazin-1-yl)ethan-1-ol]
8.41 | Fc1cnccc1Nc1nc(-c2ccccn2)nn2ccc(CNCCCN3CCOCC3)c12 [Example 246, 3-fluoro-N-[5-({[3-(morpholin-4-yl)propyl]amino}methyl)-2-(pyridin-2-yl)pyrrolo[2,1-f][1,2,4]triazin-4-yl]pyridin-4-amine]
8.92 | Fc1cnccc1Nc1nc(-c2ccccn2)nn2ccc(CN[C@H]3CCN(Cc4ccccc4)C3)c12 [Example 285, N-[5-({[(3S)-1-benzylpyrrolidin-3-yl]amino}methyl)-2-(pyridin-2-yl)pyrrolo[2,1-f][1,2,4]triazin-4-yl]-3-fluoropyridin-4-amine]
8.59 | Cc1cnc(CNCc2ccn3nc(-c4ccccn4)nc(Nc4ccncc4F)c23)cn1 [Example 305, 3-fluoro-N-[5-({[(5-methylpyrazin-2-yl)methyl]amino}methyl)-2-(pyridin-2-yl)pyrrolo[2,1-f][1,2,4]triazin-4-yl]pyridin-4-amine]
8.96 | Fc1cnccc1Nc1nc(-c2ccccn2)nn2ccc(CNCC(F)(F)F)c12 [Example 268, 3-fluoro-N-[2-(pyridin-2-yl)-5-{[(2,2,2-trifluoroethyl)amino]methyl}pyrrolo[2,1-f][1,2,4]triazin-4-yl]pyridin-4-amine]
8.04 | CN1CCN(Cc2ccn3nc(-c4ccccn4)nc(Nc4ccncc4F)c23)CC1 [Example 127, 3-fluoro-N-{5-[(4-methylpiperazin-1-yl)methyl]-2-(pyridin-2-yl)pyrrolo[2,1-f][1,2,4]triazin-4-yl}pyridin-4-amine]
9.00 | CN(C)C1CCC(NCc2ccn3nc(-c4ccccn4)nc(Nc4ccncc4F)c23)CC1 (stereo not shown) [Example 245, 4-N-({4-[(3-fluoropyridin-4-yl)amino]-2-(pyridin-2-yl)pyrrolo[2,1-f][1,2,4]triazin-5-yl}methyl)-1-N, 1-N-dimethylcyclohexane-1,4-diamine]
8.92 | Fc1cnccc1Nc1nc(-c2ccccn2)nn2ccc(CNCC3CCC3)c12 [Example 271, N-(5-{[(cyclobutylmethyl)amino]methyl}-2-(pyridin-2-yl)pyrrolo[2,1-f][1,2,4]triazin-4-yl)-3-fluoropyridin-4-amine]
8.60 | Fc1cnccc1Nc1nc(-c2ccccn2)nn2ccc(CNCCc3ccccn3)c12 [Example 304, 3-fluoro-N-[2-(pyridin-2-yl)-5-({[2-(pyridin-2-yl)ethyl]amino}methyl)pyrrolo[2,1-f][1,2,4]triazin-4-yl]pyridin-4-amine]
9.60 | CC(=O)Nc1cc(Nc2nc(-c3ccccn3)nn3ccc(CN4CCOCC4)c23)ccn1 [Example 293, N-(4-{[5-(morpholin-4-ylmethyl)-2-(pyridin-2-yl)pyrrolo[2,1-f][1,2,4]triazin-4-yl]amino}pyridin-2-yl)acetamide]
9.03 | O[C@H]1CCN(Cc2ccn3nc(-c4ccccn4)nc(Nc4ccncc4F)c23)C1 [Example 232, (3S)-1-({4-[(3-fluoropyridin-4-yl)amino]-2-(pyridin-2-yl)pyrrolo[2,1-f][1,2,4]triazin-5-yl}methyl)pyrrolidin-3-ol]
8.96 | OC1CCCCC1NCc1ccn2nc(-c3ccccn3)nc(Nc3ccncc3F)c12 (stereo not shown) [Example 272, 2-[({4-[(3-fluoropyridin-4-yl)amino]-2-(pyridin-2-yl)pyrrolo[2,1-f][1,2,4]triazin-5-yl}methyl)amino]cyclohexan-1-ol]
> 9.12 | CC1(NCc2ccn3nc(-c4ccccn4)nc(Nc4ccncc4F)c23)CCOCC1 [Example 242, 3-fluoro-N-(5-{[(4-methyloxan-4-yl)amino]methyl}-2-(pyridin-2-yl)pyrrolo[2,1-f][1,2,4]triazin-4-yl)pyridin-4-amine]
9.24 | OC1CCN(Cc2ccn3nc(-c4ccccn4)nc(Nc4ccncc4F)c23)CC1 [Example 243, 1-({4-[(3-fluoropyridin-4-yl)amino]-2-(pyridin-2-yl)pyrrolo[2,1-f][1,2,4]triazin-5-yl}methyl)piperidin-4-ol]
